Source: patent publication US20080063628A1, “METHODS TO PROMOTE CELL DIFFERENTIATION” (priority 2006, published 2008)

Columns and labels:
Type in all cases: cell-based, human
[1] = tested on: amniotic fluid-derived cell line; assay: Two high dose trichostatin A treatments (first 48 h), gene expression by RT-PCR (Example 9); details: for Gata1 gene expression / HNF-3 beta gene expression / Insulin gene expression / Pdx-1 gene expression / sox17 gene expression: 1.25 μM 0-48 h + 96-120 h;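 on Gata-1 RT-PCR detection cycle: lower cycle number means higher gene expression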;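 on HNF-3 beta RT-PCR detection cycle: lower cycle number means higher gene expression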
Experimental: Several cell lines obtained from different amniotic fluid specimens (see Example 14) and pancreas donors (see Example 13) were tested with similar results. Two lines at similar passage number but derived from different amniotic fluid specimens are shown in Table VIII-A and Table VIII-B for this example. One of these cell lines was also used in examples 2 and 4 above. In addition, this example also contains comparison data in Table VIII-C and Table VIII-D for a single pancreatic-derived stromal line grown to early and late passage number.
Amniotic fluid derived cells or pancreatic-derived stromal cells were seeded into 24-well tissue culture plates at a density of 5000/cm^2 and cultured in AMNIOMAX (Invitrogen) or DMEM with 10% FBS respectively under standard cell culture conditions until confluent. After reaching confluence, amniotic fluid derived cells were treated at time 0 hours with a dose of 1.25 μM trichostatin A, and pancreatic-derived stromal cells were treated with a dose of 5.0 μM trichostatin A solubilized in DMSO and medium. At time 48 hours, cell cultures underwent a complete medium change to remove all traces of trichostatin A. At time 96 hours, cell cultures were re-fed with fresh medium and received a second dose of trichostatin A at the same concentration as used previously. At time 120 hours, cell cultures again underwent a complete medium change and were cultured for an additional 24 hours or […] total incubation time. Samples were taken for RT-PCR at the times indicated in Table IX-A to D. RNA samples were obtained daily from the start of the experiment. Culture medium was removed, and cells were washed with PBS then collected in RLT with β-mercaptoethanol (Qiagen). RNA was purified using the RNeasy Mini Kit (Qiagen) and RNA quantity and quality was determined using a spectrophotometer. cDNA was made using the iScript cDNA synthesis kit (BioRad). Human pancreas cDNA was included as a control. Results were normalized against GAPDH expression levels.
[…] Samples of 20 ng cDNA was used in each Real-Time PCR reaction. RT-PCR was performed on the Applied Biosystems 7500, according to the methods described in Example 15. The data were analyzed using the accompanying software.
Real-time PCR amplifcation and quantitative analysis. Unless otherwise stated, all reagents were purchased from Applied Biosystems. Real-time PCR reactions were performed using the ABI PRISM™ 7500 Sequence Detection System. TAQMAN™ FAST UNIVERSAL PCR MASTER MIX™ (ABI, CA) was used with 20 ng of reverse transcribed RNA in a total reaction volume of 20 μl. Each cDNA sample was run in duplicate to allow correction of pipetting errors. Primers and FAM-labeled TAQMAN™ probes were used at concentrations of 200 nM. The level of expression for each target gene was normalized using the pre-developed Applied Biosystem's human glyceraldehyde-3-phosphate dehydrogenase (GAPDH) endogenous control kit. Primers and probes were designed using either ABI PRISM PRIMER EXPRESS™ software or a pre-developed ABI gene analysis kit. For each gene, either one of the primers or the probe were designed to be exon-boundary spanning. This eliminated the possibility of the primers/probe binding to any genomic DNA present. The primer and probe sets are listed as follows: Pdx-1 (Hs00426216), Insulin (Hs00355773), glucagon (Hs00174967), and FoxA2 (HNF 3-beta) (Hs00232764). The remaining primers were designed using the PRIMERS program (ABI, CA). After an initial 95° C. incubation for 20 sec, samples were cycled 40 times in two stages: a denaturation step at 95° C. for 3 sec, followed by an annealing/extension step at 60° C. for 30 sec.
For each primer/probe set, a cycle time value was determined as the cycle number at which the fluorescence intensity of the PCR reaction reached a specific value in the middle of the exponential region of amplification. […]

[2] = tested on: second amniotic fluid-derived cell line; assay: as above; details: 1.25 μM, following first treatment
[3] = tested on: second amniotic fluid-derived cell line; assay: Two sequential low dose trichostatin A treatments, gene expression by RT-PCR (Example 7); details: 0.5 μM, after 72 hours, remainder of the experiment
[4] = 1.25 μM, following the addition

## CC(/C=C/C(=O)NO)=C\[C@@H](C)C(=O)c1ccc(N(C)C)cc1 [trichostatin A]
[1]; 24 hrs
  Gata1 gene expression: + (detectable between 35 and 40 cycles by RT-PCR)
  HNF-3 beta gene expression: +++ (detectable at less than 35 cycles by RT-PCR with SE less than 0.9)
  Insulin gene expression: nd (not detectable at >40 cycles by RT-PCR)
  Pdx-1 gene expression: +++ (detectable at less than 35 cycles by RT-PCR with SE less than 0.9)
  sox17 gene expression: +++ (detectable at less than 35 cycles by RT-PCR with SE less than 0.9)
[1]; 48 hrs
  Gata1 gene expression: nd (not detectable at >40 cycles by RT-PCR)
  HNF-3 beta gene expression: +++ (detectable at less than 35 cycles by RT-PCR with SE less than 0.9)
  Insulin gene expression: nd (not detectable at >40 cycles by RT-PCR)
  Pdx-1 gene expression: +++ (detectable at less than 35 cycles by RT-PCR with SE less than 0.9)
  sox17 gene expression: +++ (detectable at less than 35 cycles by RT-PCR with SE less than 0.9)
[1]; 72 hrs
  Gata1 gene expression: nd (not detectable at >40 cycles by RT-PCR)
  HNF-3 beta gene expression: + (detectable between 35 and 40 cycles by RT-PCR)
  Insulin gene expression: nd (not detectable at >40 cycles by RT-PCR)
  Pdx-1 gene expression: nd (not detectable at >40 cycles by RT-PCR)
  sox17 gene expression: +++ (detectable at less than 35 cycles by RT-PCR with SE less than 0.9)
[1]; 96 hrs
  Gata1 gene expression: nd (not detectable at >40 cycles by RT-PCR)
  HNF-3 beta gene expression: nd (not detectable at >40 cycles by RT-PCR)
  Insulin gene expression: nd (not detectable at >40 cycles by RT-PCR)
  Pdx-1 gene expression: nd (not detectable at >40 cycles by RT-PCR)
  sox17 gene expression: +++ (detectable at less than 35 cycles by RT-PCR with SE less than 0.9)
[1]; 120 hrs
  Gata1 gene expression: nd (not detectable at >40 cycles by RT-PCR)
  HNF-3 beta gene expression: + (detectable between 35 and 40 cycles by RT-PCR)
  Insulin gene expression: nd (not detectable at >40 cycles by RT-PCR)
  Pdx-1 gene expression: + (detectable between 35 and 40 cycles by RT-PCR)
  sox17 gene expression: +++ (detectable at less than 35 cycles by RT-PCR with SE less than 0.9)
[1]; 1.25 μM, after the second treatment
  Pdx-1 RT-PCR detection cycle: 37 cycles
[1]; 1.25 μM, following first treatment
  Gata-1 RT-PCR detection cycle: 37 cycles
[1]; [4]
  HNF-3 beta RT-PCR detection cycle: 31 cycles
  Pdx-1 RT-PCR detection cycle: 32 cycles
[1]; 1.25 μM, following the second treatment
  HNF-3 beta RT-PCR detection cycle: 35 cycles
[2]
  Gata-1 RT-PCR detection cycle: 38 cycles
[3]
  HNF-3 beta RT-PCR detection cycle: 37 cycles
